{"source": "PubChem BioAssay AID270", "about": "(DTP/NCI, 2004)", "tested_on": "BDF1 mice, s.c. Lewis lung carcinoma, T/C %", "experiment": "NCI In Vivo Anticancer Drug Screen. Data for tumor model Lewis Lung Carcinoma (subcutaneous) in B6D2F1 (BDF1) mice", "in_short": "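First, mice carry a transplantable tumor. Next, groups receive either compound or vehicle. Finally, survival or tumor dimensions in the dosed animals are divided by the corresponding control figure.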", "key": {"[1]": {"details": "endpoint: mean tumor weight, dose: 25.0 mg/kg/injection, schedule: Q01DX011 (ip), vehicle: saline, higher = larger tumour"}, "[2]": {"details": "endpoint: mean tumor weight, dose: 50.0 mg/kg/injection, schedule: Q01DX011 (ip), vehicle: saline, higher = larger tumour"}}, "note": "Where “and” joins values, the source holds several entries; their conditions need not be identical. Equal entries are not always repeated. Results filed as inconclusive are left out.", "data": [{"smiles": "CS(=O)(=O)OCC(O)C(O)COS(C)(=O)=O", "note": "(centres undefined)", "values": [{"measurement": "T/C", "setting": "endpoint: mean tumor weight, dose: 125.0 mg/kg/injection, schedule: Q01DX011 (ip), vehicle: saline, higher = larger tumour", "value": "87 % of control"}, {"measurement": "T/C", "setting": "endpoint: mean tumor weight, dose: 250.0 mg/kg/injection, schedule: Q01DX011 (ip), vehicle: saline, higher = larger tumour", "value": "77 % of control"}, {"measurement": "T/C", "setting": "endpoint: mean tumor weight, dose: 500.0 mg/kg/injection, schedule: Q01DX011 (ip), vehicle: other, higher = larger tumour", "value": "75 % of control"}, {"measurement": "T/C", "setting": "endpoint: mean tumor weight, dose: 500.0 mg/kg/injection, schedule: Q01DX011 (ip), vehicle: saline, higher = larger tumour", "value": "59 % of control"}, {"measurement": "T/C", "setting": "endpoint: mean tumor weight, dose: 750.0 mg/kg/injection, schedule: Q01DX011 (ip), vehicle: other, higher = larger tumour", "value": "93 % of control"}, {"measurement": "T/C", "setting": "endpoint: mean tumor weight, dose: 1000.0 mg/kg/injection, schedule: Q01DX011 (ip), vehicle: other, higher = larger tumour", "value": "55 % of control"}]}, {"smiles": "ClCC[N+]12CC[N+](CCCl)(CC1)C2", "values": [{"measurement": "T/C", "setting": "endpoint: median survival time, dose: 25.0 mg/kg/injection, schedule: Q01DX009 (ip), vehicle: saline, higher = longer survival", "value": "105 % of control"}, {"measurement": "T/C", "setting": "endpoint: median survival time, dose: 50.0 mg/kg/injection, schedule: Q01DX009 (ip), vehicle: saline, higher = longer survival", "value": "106 % of control"}]}, {"smiles": "O=c1cnn(C2OC(CO)C(O)C2O)c(=O)[nH]1", "note": "(centres undefined)", "values": [{"measurement": "T/C", "setting": "endpoint: median survival time, dose: 150.0 mg/kg/injection, schedule: Q01DX009 (ip), vehicle: Klucel (hydroxypropylcellulose) (HPC), higher = longer survival", "value": "150 % of control"}, {"measurement": "T/C", "setting": "endpoint: median survival time, dose: 600.0 mg/kg/injection, schedule: Q01DX009 (ip), vehicle: Klucel (hydroxypropylcellulose) (HPC), higher = longer survival", "value": "157 % of control"}]}, {"smiles": "CNC(=O)Nc1ccccc1C(=O)NN", "values": [{"measurement": "T/C", "setting": "endpoint: median survival time, dose: 25.0 mg/kg/injection, schedule: Q01DX009 (ip), vehicle: Klucel (hydroxypropylcellulose) (HPC), higher = longer survival", "value": "113 % of control"}, {"measurement": "T/C", "setting": "endpoint: median survival time, dose: 50.0 mg/kg/injection, schedule: Q01DX009 (ip), vehicle: Klucel (hydroxypropylcellulose) (HPC), higher = longer survival", "value": "96 % of control"}, {"measurement": "T/C", "setting": "endpoint: median survival time, dose: 100.0 mg/kg/injection, schedule: Q01DX009 (ip), vehicle: Klucel (hydroxypropylcellulose) (HPC), higher = longer survival", "value": "102 % of control"}, {"measurement": "T/C", "setting": "endpoint: median survival time, dose: 200.0 mg/kg/injection, schedule: Q01DX009 (ip), vehicle: Klucel (hydroxypropylcellulose) (HPC), higher = longer survival", "value": "93 % of control"}]}, {"smiles": "C=C(C)C(=O)O[C@H]1[C@H]2[C@H](OC(=O)[C@H]2C)[C@H](O)[C@@H](C)[C@@H]2C=CC(=O)[C@]21C", "values": [{"measurement": "T/C", "setting": "endpoint: median survival time, dose: 15.0 mg/kg/injection, schedule: Q01DX009 (ip), vehicle: saline, higher = longer survival", "value": "113 % of control"}, {"measurement": "T/C", "setting": "endpoint: median survival time, dose: 30.0 mg/kg/injection, schedule: Q01DX009 (ip), vehicle: saline, higher = longer survival", "value": "104 % of control"}]}, {"smiles": "C=C1C(=O)O[C@@H]2[C@H](O)[C@@H](C)[C@@H]3C=CC(=O)[C@@]3(C)[C@H](OC(=O)C=C(C)C)[C@H]12", "values": [{"measurement": "T/C", "setting": "endpoint: median survival time, dose: 0.63 mg/kg/injection, schedule: Q01DX009 (ip), vehicle: saline with Tween-80, higher = longer survival", "value": "95 % of control"}, {"measurement": "T/C", "setting": "endpoint: median survival time, dose: 1.25 mg/kg/injection, schedule: Q01DX009 (ip), vehicle: saline with Tween-80, higher = longer survival", "value": "92 % of control"}, {"measurement": "T/C", "setting": "endpoint: median survival time, dose: 2.5 mg/kg/injection, schedule: Q01DX009 (ip), vehicle: saline with Tween-80, higher = longer survival", "value": "99 % of control"}, {"measurement": "T/C", "setting": "endpoint: median survival time, dose: 5.0 mg/kg/injection, schedule: Q01DX009 (ip), vehicle: saline with Tween-80, higher = longer survival", "value": "95 % of control"}, {"measurement": "T/C", "setting": "endpoint: median survival time, dose: 10.0 mg/kg/injection, schedule: Q01DX009 (ip), vehicle: Klucel (hydroxypropylcellulose) (HPC), higher = longer survival", "value": "118 % of control"}, {"measurement": "T/C", "setting": "endpoint: median survival time, dose: 10.0 mg/kg/injection, schedule: Q01DX009 (ip), vehicle: saline with Tween-80, higher = longer survival", "value": "92 % of control"}]}, {"smiles": "CN(C)CCOC(=O)COc1ccc(Cl)cc1", "values": [{"measurement": "T/C", "setting": "endpoint: median survival time, dose: 200.0 mg/kg/injection, schedule: Q01DX005 (ip), vehicle: saline, higher = longer survival", "value": "103 % of control and 116 % of control"}, {"measurement": "T/C", "setting": "endpoint: median survival time, dose: 300.0 mg/kg/injection, schedule: Q01DX005 (ip), vehicle: saline, higher = longer survival", "value": "119 % of control"}]}, {"smiles": "C1CCNC1", "values": [{"measurement": "T/C", "setting": "endpoint: mean tumor weight, dose: 1.56 mg/kg/injection, schedule: Q01DX011 (ip), vehicle: saline, higher = larger tumour", "value": "65 % of control"}, {"measurement": "T/C", "setting": "endpoint: mean tumor weight, dose: 3.13 mg/kg/injection, schedule: Q01DX011 (ip), vehicle: saline, higher = larger tumour", "value": "87 % of control"}, {"measurement": "T/C", "setting": "endpoint: mean tumor weight, dose: 6.25 mg/kg/injection, schedule: Q01DX011 (ip), vehicle: saline, higher = larger tumour", "value": "117 % of control"}, {"measurement": "T/C", "setting": "[1]", "value": "73 % of control"}, {"measurement": "T/C", "setting": "[2]", "value": "67 % of control"}]}, {"smiles": "CCCCn1cnc2c(=S)nc(N)[nH]c21", "values": [{"measurement": "T/C", "setting": "endpoint: mean tumor weight, dose: 1.0 mg/kg/injection, schedule: Q01DX011 (ip), vehicle: other, higher = larger tumour", "value": "73 % of control"}, {"measurement": "T/C", "setting": "endpoint: mean tumor weight, dose: 2.0 mg/kg/injection, schedule: Q01DX011 (ip), vehicle: other, higher = larger tumour", "value": "59 % of control"}, {"measurement": "T/C", "setting": "endpoint: mean tumor weight, dose: 4.0 mg/kg/injection, schedule: Q01DX011 (ip), vehicle: other, higher = larger tumour", "value": "39 % of control"}, {"measurement": "T/C", "setting": "endpoint: mean tumor weight, dose: 8.0 mg/kg/injection, schedule: Q01DX011 (ip), vehicle: other, higher = larger tumour", "value": "58 % of control and 63 % of control"}, {"measurement": "T/C", "setting": "endpoint: mean tumor weight, dose: 16.0 mg/kg/injection, schedule: Q01DX011 (ip), vehicle: other, higher = larger tumour", "value": "61 % of control"}, {"measurement": "T/C", "setting": "endpoint: mean tumor weight, dose: 32.0 mg/kg/injection, schedule: Q01DX011 (ip), vehicle: other, higher = larger tumour", "value": "34 % of control"}]}, {"smiles": "C=CCNC(=O)NCC=C", "values": [{"measurement": "T/C", "setting": "[1]", "value": "96 % of control"}, {"measurement": "T/C", "setting": "[2]", "value": "28 % of control"}, {"measurement": "T/C", "setting": "endpoint: mean tumor weight, dose: 100.0 mg/kg/injection, schedule: Q01DX011 (ip), vehicle: saline, higher = larger tumour", "value": "16 % of control"}, {"measurement": "T/C", "setting": "endpoint: mean tumor weight, dose: 200.0 mg/kg/injection, schedule: Q01DX011 (ip), vehicle: saline, higher = larger tumour", "value": "43 % of control"}]}]}
